The target in experiment [1] is T1, RpdA (TAP-tagged wild-type RpdA) (Aspergillus nidulans, UniProt G5EB64).
T1 construct: gene ANIA_04493; full-length, C12 motif present; TAP-tagged, expressed under xylPp in A. nidulans, IgG Sepharose, eluted by TEV cleavage (CBP part kept)
Put plainly: HDAC assay, release of [3H]acetate from prelabeled histones. Format: biochemical. Conditions: [3H]acetate-prelabeled chicken reticulocyte histones as substrate; 1 h, 25 C; inhibitor at 50 and 500 nM.

For experiment [2], the target named is T1, RpdA (TAP-tagged wild-type RpdA). The description is as above. The settings on record: read-out: % inhibition at 50 nM. Format: biochemical.

Molecules are shown by their SMILES.

In general, inhibition refers to how much of the control response was suppressed.

T1 sequence (G5EB64 1-687): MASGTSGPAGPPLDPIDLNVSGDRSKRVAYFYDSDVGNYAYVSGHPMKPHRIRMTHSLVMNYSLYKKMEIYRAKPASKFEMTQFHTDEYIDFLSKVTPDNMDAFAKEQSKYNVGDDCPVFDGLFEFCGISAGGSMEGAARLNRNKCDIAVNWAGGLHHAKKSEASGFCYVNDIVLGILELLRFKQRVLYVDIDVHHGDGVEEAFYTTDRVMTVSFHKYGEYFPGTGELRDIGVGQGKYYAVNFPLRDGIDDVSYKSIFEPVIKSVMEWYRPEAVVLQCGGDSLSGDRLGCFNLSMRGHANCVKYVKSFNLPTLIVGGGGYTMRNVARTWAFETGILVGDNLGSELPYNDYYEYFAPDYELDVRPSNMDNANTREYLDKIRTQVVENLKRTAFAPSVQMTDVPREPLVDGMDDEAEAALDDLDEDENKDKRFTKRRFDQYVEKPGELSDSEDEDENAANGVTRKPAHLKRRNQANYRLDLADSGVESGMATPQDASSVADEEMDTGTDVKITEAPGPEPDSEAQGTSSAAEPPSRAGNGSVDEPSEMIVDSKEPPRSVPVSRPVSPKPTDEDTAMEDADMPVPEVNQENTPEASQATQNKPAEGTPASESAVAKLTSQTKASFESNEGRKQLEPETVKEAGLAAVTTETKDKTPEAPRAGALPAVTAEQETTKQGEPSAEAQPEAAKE

Regarding `O=C(CCCCCCC(=O)Nc1ccccc1)NO` [vorinostat], the “% inhibition at 50 and 500 nM” value in experiment [1] is listed as “SAHA showed only weak inhibition of RpdA”.

For the compound `CC(/C=C/C(=O)NO)=C\[C@@H](C)C(=O)c1ccc(N(C)C)cc1` [trichostatin A], in experiment [2], the inhibition at 0.05 µM was 70%.

These data come from article PMC5090035, “A Class 1 Histone Deacetylase with Potential as an Antifungal Target” (mBio, 2016).
